Source: patent US12484582B2, “Herbicidal compound” (PRO FARM GROUP, INC., priority 2017, dated 2025)

Tested on: Burgundy amaranth (Amaranthus hypochondriacus)
Test: Herbicidal bioassay against Burgundy amaranth (foliar spray, evaluated 6 days after application)
Format: in vivo
Details: 144 h, read-out: (%) Mortality/Control at Concentration (μg/mL)
Text: As noted above, the herbicidal compositions can be chemically synthesized or derived from a biological organism. Here, the culture broth derived from the 100 L fermentation Burkholderia (A396) was extracted to give crude extract. The crude extract was then fractionated using reversed-phase C18 vacuum liquid chromatography (H2O/CH3OH) to give 5 fractions. These fractions were then screened for herbicidal activity using plant assay with Amaranthus hypochondriacus (Burgundy amaranth). The active fractions (F3 & F4) were then subjected to reversed phase HPLC to give pure compounds, which were then tested in the above mentioned bioassay to locate/identify the active compounds. […] To confirm the identity of the compounds, additional spectroscopic data such as LC-MS and NMR were recorded. Based on the detailed analysis of the data, the two compounds were identified as FR 901464 (MW 507) and spliceostatin C (MW 519). Note that different fermentation method would produce different (or no) amount of the below compound(s), some none at all.
Burgundy amaranth (Amaranthus hypochondriacus) plants were grown in a greenhouse to the 3-4 leaf stage in 2.5 cm square pots containing plant growth mix with slow release fertilizer. Treatments were then applied using a research cabinet track sprayer fitted with an 8001 nozzle and at a carrier volume of 20 gal/A. Negative controls were sprayed with water. Pots were blocked and randomized by treatment after spray and placed in a growth room at 25° C. and 50% RH, and watered as necessary. Plants were evaluated 6 days after application for visual damage and fresh weight. Data in Table 1 was subjected to ANOVA and means were separated using the Tukey method with 95% confidence intervals.

Row | Structure (SMILES) | mortality at 0.65 µg/mL [%] | mortality at 1.3 µg/mL [%]
1 | CC(=O)OC(C)/C=C\C(=O)NC1CC(C)C(C/C=C(C)/C=C/C2OC(C)(O)CC3(CO3)C2O)OC1C (stereo not shown) [FR901464] | 44 | 84
2 | CC(=O)OC(C)/C=C\C(=O)NC1CC(C)C(C/C=C(C)/C=C/C2CC3(CO3)CC(CC(=O)O)O2)OC1C (stereo not shown) [Spliceostatin C] | 44 | 80
